In patent US20220041627A1, “PRODRUGS OF ANTI-CANCER AND ANTI-AUTOIMMUNE DISEASES THERAPEUTIC AGENTS, AND METHODS OF MAKING AND USE THEREOF” (UNIVERSITY OF MARYLAND, BALTIMORE, priority 2018, published 2022) one finds body weights data, which are given here for 1 compound.

This data set relates to wild-type C57BL/6 male mice. In words: Acute toxicity in mice. As to conditions: 100 mg/kg i.p. every other day for 15 days, compared to vehicle group. Type of data set: in vivo. Here is the method: FIGS. 5A and 5B illustrate the survival rate (FIG. 5A) and body weight (FIG. 5B) curves of the various groups of mice. […] Mice were treated every other day by intraperitoneal (i.p.) injection for 15 days, the survival and body weights of the mice were recorded after treatment.
Mice were treated every other day by intraperitoneal (i.p.) injection for 15 days, the survival and body weights of the mice were recorded after treatment.

`CC1(C)OB(c2ccc(Cn3cc(F)c(=O)[nH]c3=O)cc2)OC1(C)C` [Compound 1a, 5-Fluoro-1-(4-(4,4,5,5-tetramethyl-1,3,2-dioxaborolan-2-yl)benzyl)pyrimidine-2,4(1H,3H)-dione]: the body weights entry is “no obvious changes”.
